Legend:
eIF-2-alpha kinase GCN2 [1] = molecular target: T1, eIF-2-alpha kinase GCN2 (Homo sapiens, UniProt Q9P2K8); assay: Inhibition of GCN2 (unknown origin) using GFP-elF2a as substrate preincubated with substrate for 20 mins measured after 90 mins by Lanthascreen assay
eIF-2-alpha kinase GCN2 [2] = molecular target: T1, eIF-2-alpha kinase GCN2; assay: Inhibition of GCN2-mediated elF2alpha phosphorylation in human U2OS cells after 2 hrs by immunocytochemistry; assay type: cell-based

T1 sequence (Q9P2K8 whole entry): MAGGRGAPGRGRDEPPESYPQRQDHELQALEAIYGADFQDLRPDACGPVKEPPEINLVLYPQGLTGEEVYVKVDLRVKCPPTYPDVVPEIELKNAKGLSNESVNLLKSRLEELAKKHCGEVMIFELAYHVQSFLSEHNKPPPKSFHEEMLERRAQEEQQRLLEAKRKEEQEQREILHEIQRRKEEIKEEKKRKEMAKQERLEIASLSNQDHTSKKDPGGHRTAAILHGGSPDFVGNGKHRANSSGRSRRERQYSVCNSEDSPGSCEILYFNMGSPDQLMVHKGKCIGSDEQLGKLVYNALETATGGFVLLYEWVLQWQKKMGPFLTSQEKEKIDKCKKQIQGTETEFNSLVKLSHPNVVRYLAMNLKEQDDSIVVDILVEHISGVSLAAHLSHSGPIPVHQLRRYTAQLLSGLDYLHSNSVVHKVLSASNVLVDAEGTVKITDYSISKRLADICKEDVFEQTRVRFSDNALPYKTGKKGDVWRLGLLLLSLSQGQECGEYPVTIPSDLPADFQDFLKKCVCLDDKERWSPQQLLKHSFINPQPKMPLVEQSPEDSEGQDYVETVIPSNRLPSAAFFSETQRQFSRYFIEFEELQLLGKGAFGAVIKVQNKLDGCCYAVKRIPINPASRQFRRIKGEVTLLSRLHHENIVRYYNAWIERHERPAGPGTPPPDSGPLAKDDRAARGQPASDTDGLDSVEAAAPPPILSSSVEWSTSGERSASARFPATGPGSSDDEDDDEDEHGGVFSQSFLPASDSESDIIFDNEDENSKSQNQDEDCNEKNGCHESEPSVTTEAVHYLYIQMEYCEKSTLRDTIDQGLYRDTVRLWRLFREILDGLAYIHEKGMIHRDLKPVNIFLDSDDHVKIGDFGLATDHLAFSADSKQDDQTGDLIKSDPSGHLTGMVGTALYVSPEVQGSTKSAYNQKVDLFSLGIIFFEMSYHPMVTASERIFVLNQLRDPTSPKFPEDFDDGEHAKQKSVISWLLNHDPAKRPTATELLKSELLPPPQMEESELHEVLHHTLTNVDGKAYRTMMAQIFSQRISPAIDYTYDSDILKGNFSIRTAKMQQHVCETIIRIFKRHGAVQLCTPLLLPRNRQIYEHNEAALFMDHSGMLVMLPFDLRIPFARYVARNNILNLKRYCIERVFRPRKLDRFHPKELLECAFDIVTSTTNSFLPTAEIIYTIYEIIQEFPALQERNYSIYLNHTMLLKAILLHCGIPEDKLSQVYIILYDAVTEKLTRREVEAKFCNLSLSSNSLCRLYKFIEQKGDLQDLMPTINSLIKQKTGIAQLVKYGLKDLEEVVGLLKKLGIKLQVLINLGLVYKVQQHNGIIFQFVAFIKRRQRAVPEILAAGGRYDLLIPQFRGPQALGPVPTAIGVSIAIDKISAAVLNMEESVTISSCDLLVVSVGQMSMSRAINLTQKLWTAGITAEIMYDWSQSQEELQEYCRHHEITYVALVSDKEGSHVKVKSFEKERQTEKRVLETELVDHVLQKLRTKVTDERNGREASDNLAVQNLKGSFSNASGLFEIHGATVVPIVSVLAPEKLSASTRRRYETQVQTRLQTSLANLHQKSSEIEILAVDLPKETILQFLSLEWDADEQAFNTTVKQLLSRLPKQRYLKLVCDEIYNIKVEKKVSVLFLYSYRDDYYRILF

| IC50 (eIF-2-alpha kinase GCN2 [1]) [nM] | IC50 (eIF-2-alpha kinase GCN2 [2]) [nM] | Structure (SMILES) |
| --- | --- | --- |
| < 300 | < 300 | O[C@H]1CC[C@H](n2ccc(Nc3ncc4c(nnn4-c4ccc(Cl)c(F)c4)n3)n2)CC1 |
| < 300 | < 300 | c1cc2cn[nH]c2cc1-n1nnc2nc(Nc3ccn(C4CCOCC4)n3)ncc21 |
| < 300 | < 300 | CCOc1ccc(-n2nnc3nc(Nc4ccn(CCCC5CCNCC5)n4)ncc32)cc1 |
| < 300 | 300 | CCn1ccc(Nc2ncc3c(nnn3-c3ccc(C(C)(C)OCCO)cc3)n2)n1 |

— ChEMBL document CHEMBL3259523, “Triazolo[4,5-d]pyrimidine Derivatives as Inhibitors of GCN2” (ACS Med Chem Lett, 2014)
